ChEMBL document CHEMBL1201862, “PubChem BioAssay data set” (2004)
Activity calls are given as the source filed them.

Key:
Jurkat = test: antigen receptor-induced NF-kB inhibitors, dose response, Jurkat, luciferase reporter, luminescence, B- and T-cell (AID 489004); format: functional, cell-based; settings: Homo sapiens;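 further: NF-kB luciferase reporter Jurkat cells stimulated with PMA plus ionomycin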
[1] = cytotoxicity in HEK-293T NF-kB-Luc cells, dose response, cytotoxicity control for B/T-cell NF-kB inhibitor project, cell-based, uHTS hits (AID 489019); format: functional;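 further: IC50 reflects cytotoxicity as loss of cell viability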
[2] = molecular target: T1, Sentrin-specific protease 8 (Homo sapiens, UniProt Q96LD8); format: functional
T1 sequence (Q96LD8 whole entry): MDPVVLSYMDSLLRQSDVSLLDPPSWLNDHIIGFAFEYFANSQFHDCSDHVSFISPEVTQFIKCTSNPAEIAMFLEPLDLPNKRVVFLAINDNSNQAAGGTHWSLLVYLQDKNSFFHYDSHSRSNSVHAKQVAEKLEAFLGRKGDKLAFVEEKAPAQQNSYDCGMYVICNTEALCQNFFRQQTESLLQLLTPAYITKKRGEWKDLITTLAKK

Caspase-7 = molecular target: T2, Caspase-7 (Homo sapiens, UniProt P55210); test: human caspase-7 inhibitors, dose response, selectivity assay for caspase-6 inhibitor project, biochemical, DEVD-R110 fluorescence, cherry-pick (AID 743295)
T2 sequence (P55210 whole entry): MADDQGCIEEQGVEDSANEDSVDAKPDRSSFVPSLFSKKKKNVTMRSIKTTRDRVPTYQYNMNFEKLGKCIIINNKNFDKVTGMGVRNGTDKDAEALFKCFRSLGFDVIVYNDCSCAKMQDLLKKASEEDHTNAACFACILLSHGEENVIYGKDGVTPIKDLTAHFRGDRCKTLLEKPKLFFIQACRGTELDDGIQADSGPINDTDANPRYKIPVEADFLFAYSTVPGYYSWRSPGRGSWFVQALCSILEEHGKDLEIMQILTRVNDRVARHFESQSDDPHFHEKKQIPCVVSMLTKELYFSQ

[3] = molecular target: DNA repair protein RAD52 homolog (Homo sapiens, UniProt P43351); format: functional, biochemical
[4] = microbe, parasite or virus in culture; format: functional; settings: Mycobacterium tuberculosis
[5] = molecular target: T3, Replicative DNA helicase DnaB (Mycobacterium tuberculosis, UniProt P9WMR3); test: DnaB intein splicing inhibitors, dose response, biochemical, cell-free fluorescence (AID 449749); format: functional
T3 sequence (P9WMR3 whole entry): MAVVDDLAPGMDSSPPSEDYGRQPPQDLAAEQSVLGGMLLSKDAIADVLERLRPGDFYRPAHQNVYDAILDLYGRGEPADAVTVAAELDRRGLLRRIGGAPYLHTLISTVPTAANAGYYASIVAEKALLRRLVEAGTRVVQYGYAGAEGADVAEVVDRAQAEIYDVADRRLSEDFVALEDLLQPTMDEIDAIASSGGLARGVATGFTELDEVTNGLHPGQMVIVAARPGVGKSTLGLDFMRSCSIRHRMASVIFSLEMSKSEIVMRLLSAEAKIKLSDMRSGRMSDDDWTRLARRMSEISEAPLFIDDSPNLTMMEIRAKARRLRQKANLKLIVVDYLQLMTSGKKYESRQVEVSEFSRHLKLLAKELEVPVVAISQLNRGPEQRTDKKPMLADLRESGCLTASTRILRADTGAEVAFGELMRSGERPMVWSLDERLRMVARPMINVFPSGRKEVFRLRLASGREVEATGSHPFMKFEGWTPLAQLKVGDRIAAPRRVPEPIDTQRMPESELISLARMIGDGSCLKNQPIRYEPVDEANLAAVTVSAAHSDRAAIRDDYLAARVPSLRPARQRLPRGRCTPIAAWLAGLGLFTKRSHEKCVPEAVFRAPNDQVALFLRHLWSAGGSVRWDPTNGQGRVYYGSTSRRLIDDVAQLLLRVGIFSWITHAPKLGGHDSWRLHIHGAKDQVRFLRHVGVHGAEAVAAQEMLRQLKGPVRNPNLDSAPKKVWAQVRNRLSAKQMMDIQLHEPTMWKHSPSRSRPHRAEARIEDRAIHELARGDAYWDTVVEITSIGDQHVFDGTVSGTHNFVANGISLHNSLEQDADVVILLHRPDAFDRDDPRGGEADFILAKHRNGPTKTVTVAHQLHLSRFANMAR

Caspase-6 = molecular target: T4, Caspase-6 (Homo sapiens, UniProt P55212); test: human caspase-6 inhibitors, dose response, biochemical, VEID-R110 fluorescence, cherry-pick (AID 720632)
T4 sequence (P55212 whole entry): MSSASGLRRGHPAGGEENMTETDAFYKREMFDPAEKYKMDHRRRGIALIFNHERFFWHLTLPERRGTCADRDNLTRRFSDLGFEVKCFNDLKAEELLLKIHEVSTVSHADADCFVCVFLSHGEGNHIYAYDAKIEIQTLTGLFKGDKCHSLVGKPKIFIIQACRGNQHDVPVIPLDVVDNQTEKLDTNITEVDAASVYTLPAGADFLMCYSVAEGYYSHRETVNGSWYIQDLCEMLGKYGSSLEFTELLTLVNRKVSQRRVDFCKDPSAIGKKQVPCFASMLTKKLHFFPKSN

[6] = molecular target: T1, Sentrin-specific protease 8; format: functional; remark: listed apart in the source
Protein RecA = molecular target: T5, Protein RecA (Mycobacterium tuberculosis, UniProt P9WHJ3); test: Fluorescence Cell-Free Homogeneous Dose Retest to Identify Inhibitors of RecA-Intein Splicing Activity. [Related pubchem assays (depositor defined):AID2097, AID2223, AID489010, AID492950]; format: functional
T5 sequence (P9WHJ3 whole entry): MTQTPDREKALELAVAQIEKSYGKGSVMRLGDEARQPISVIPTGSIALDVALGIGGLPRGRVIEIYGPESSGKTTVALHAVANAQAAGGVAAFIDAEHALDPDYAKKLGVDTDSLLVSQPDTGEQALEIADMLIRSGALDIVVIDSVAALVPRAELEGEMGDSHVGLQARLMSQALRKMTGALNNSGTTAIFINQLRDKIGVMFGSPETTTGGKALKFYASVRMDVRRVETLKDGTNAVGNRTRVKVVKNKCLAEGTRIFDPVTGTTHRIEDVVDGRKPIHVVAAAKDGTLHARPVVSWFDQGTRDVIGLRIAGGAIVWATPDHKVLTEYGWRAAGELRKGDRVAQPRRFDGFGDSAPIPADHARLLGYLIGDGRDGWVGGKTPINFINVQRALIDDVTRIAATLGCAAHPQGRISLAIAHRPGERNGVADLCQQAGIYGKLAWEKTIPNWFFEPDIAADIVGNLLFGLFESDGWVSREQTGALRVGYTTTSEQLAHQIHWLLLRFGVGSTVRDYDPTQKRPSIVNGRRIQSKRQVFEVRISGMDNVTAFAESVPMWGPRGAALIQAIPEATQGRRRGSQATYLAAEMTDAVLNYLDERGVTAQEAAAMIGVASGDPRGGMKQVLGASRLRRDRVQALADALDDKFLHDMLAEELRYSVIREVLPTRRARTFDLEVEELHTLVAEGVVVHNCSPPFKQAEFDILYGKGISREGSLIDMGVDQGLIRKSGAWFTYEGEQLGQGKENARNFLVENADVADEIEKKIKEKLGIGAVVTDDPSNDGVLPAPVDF

Caspase-8 = Caspase-8 (Homo sapiens, UniProt Q14790); test: caspase-8 inhibition counter-screen, dose response, selectivity assay for caspase-6 inhibitor project, biochemical, Z-IETD-R110 fluorescence, cherry-picked samples (AID 743294)
Caspase-9 = molecular target: T6, Caspase-9 (Homo sapiens, UniProt P55211); test: caspase-9 enzyme inhibition, dose response, selectivity assay for caspase-6 inhibitor project, biochemical, fluorescence, plate reader, cherry-picked samples (AID 743293)
T6 sequence (P55211 whole entry): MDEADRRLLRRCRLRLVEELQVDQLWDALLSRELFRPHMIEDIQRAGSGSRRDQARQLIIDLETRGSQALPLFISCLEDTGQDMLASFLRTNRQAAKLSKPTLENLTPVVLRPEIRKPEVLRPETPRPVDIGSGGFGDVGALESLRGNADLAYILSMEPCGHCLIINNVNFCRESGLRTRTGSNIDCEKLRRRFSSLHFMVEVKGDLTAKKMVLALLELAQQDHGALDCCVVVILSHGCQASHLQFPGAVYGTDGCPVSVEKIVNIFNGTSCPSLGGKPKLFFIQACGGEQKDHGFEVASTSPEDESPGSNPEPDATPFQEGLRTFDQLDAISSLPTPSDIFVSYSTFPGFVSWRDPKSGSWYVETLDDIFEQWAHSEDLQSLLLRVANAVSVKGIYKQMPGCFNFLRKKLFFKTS

INS1 = test: beta cell apoptosis inhibitors, cytokine rescue, dose response, luminescence, retest (AID 449756); format: functional, cell-based; settings: Rattus norvegicus;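 further: cell death triggered by IL-1 beta plus TNF-alpha plus IFN-gamma mixture; protective hits raise ATP signal compared with cytokine alone wells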

Chain of DNA repair protein RAD52 homolog (P43351 whole entry): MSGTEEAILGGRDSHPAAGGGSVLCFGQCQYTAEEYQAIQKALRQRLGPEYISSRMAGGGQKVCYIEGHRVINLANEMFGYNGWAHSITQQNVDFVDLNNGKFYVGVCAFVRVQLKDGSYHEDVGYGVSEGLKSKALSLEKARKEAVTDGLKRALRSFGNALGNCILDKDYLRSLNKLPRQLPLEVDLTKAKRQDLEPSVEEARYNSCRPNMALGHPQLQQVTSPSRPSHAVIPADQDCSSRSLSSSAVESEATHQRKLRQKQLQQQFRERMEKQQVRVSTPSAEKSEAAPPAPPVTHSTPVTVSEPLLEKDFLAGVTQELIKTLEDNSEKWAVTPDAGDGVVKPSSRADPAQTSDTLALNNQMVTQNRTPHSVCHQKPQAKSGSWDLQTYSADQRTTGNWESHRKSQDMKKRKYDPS
Chain of Caspase-8 (Q14790 217-374 limits assumed): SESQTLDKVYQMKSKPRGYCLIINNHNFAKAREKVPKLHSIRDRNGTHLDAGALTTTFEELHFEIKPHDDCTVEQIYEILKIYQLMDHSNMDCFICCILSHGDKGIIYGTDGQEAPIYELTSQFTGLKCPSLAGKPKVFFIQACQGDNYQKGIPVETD
Chain of Caspase-8 (Q14790 385-479 limits assumed): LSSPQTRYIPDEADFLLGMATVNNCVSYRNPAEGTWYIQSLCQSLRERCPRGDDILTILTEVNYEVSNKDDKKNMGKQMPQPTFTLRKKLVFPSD

COc1cc(NC(C)CCCN)c2ncccc2c1 (stereo not drawn) [PRIMAQUINE PHOSPHATE]
IC50 (Jurkat): 38 µM (inactive) | IC50 [1]: > 80 µM (inactive) | IC50 [2]: 0.935 µM (active) | AC50 (Caspase-7): 4.07 µM (active) | AC50 [3]: 5.55 µM (active) | CC50 [4]: > 40 µM (active) | AC50 [5]: 9.98 µM (active) | AC50 (Caspase-6): 1.9 µM (active) | IC50 [6]: 0.987 µM (active) | EC50 (Protein RecA): 1.17 µM (active) | AC50 (Caspase-8): 57.9 µM (active) | AC50 (Caspase-9): > 70 µM (inactive) | AC50 (INS1): 3.83 µM (active)
